# Columns and labels:
# [1] = test system: PC3 xenografts; assay: In vivo xenograft study of anti-tumor activity; conditions: for tumor growth relative to control: i.v. 1× per week via jugular vein catheter, 5FU 100 mg/kg, first 44 days, FdUMP[10] effect from day 18
# Text: FIG. 7. Plot of tumor size versus time for PC3 xenografts in nude mice. Data are shown for four treatment groups (n=8 in each group): 1) control 1; 2) FdUMP[10]; 3) control 2; 4) 5-FU. The FdUMP[10] and 5FU studies were done consecutively (rather than concurrently) so that two control groups were required.
# The principal strategy that will be used to render the dimeric aptamer complexes we have developed selectively cytotoxic towards targeted cancer cells is to include cytotoxic nucleotides, such as FdU, in the structure. While other modalities may also be included to render these modified aptamers cytotoxic to cancer cells (e.g. siRNA, toxins), there is considerable merit to the concept that dimeric aptamer complexes are the best method for delivery of FdU and other cytotoxic nucleotide analogs in the future. In principle, delivery of cytotoxic nucleotide analogs in aptamers increases the selectivity and potency of these drugs while minimizing systemic toxicities. In this regard, it is important to consider the advantages obtained by inclusion of FdU in single-stranded DNA (e.g. FdUMP[10]) relative to delivery as the nucleobase (5FU). We have shown that not only does delivery of fluoropyrimidine (FP) as FdUMP[10] increase efficacy and decrease toxicity, it also changes the spectrum of malignancies that are responsive to FP treatment. […] PSMA, the target for the dimeric aptamer complexes being developed by us, is frequently expressed in advanced prostate cancer. PSMA is also frequently expressed in tumor neovasculature. As FPs are widely used for treatment of solid tumors, the dimeric aptamer complexes developed in these studies should provide an improved mechanism for tumor-specific delivery of FPs.
# We recently completed an in vivo xenograft study evaluating the anti-tumor activity of FdUMP[10] and 5FU towards PC3 xenografts (FIG. 8). […] FdUMP[10] (150 mg/kg) was injected i.v. 1× per week via jugular vein catheter. 5FU (100 mg/kg) was also injected 1× per week by the same route. […] FdUMP[10] was well-tolerated at the administered dose. A mixed effects model was fit to examine whether there were differences between groups over the first 44 days after administration of FdUMP[10] or 5FU. In this model, individual animals were considered as random effects and the group and day variables were considered as fixed effects. […] We expect that with dimeric aptamer complexes including FdU, we will further increase the selectivity for malignant cells and further reduce systemic toxicities. Thus, dimeric aptamer complexes may ultimately become the preferred method for administering fluoropyrimidine chemotherapy in the era of molecularly targeted cancer therapeutics.
# [2] = test system: PC3 cells; assay: Relative cytotoxicity of activated FPs in PC3 versus C4-2 cells; type: cell-based; conditions: PC3 mutant p53, C4-2 wtp53; ongoing studies
# [3] = test system: C4-2 cells; assay: Flow cytometry of binding of fluorescently labeled aptamers and dimeric aptamer complexes; type: cell-based; conditions: FIG. 6; Quasar 570 / Quasar 670 fluorescence
# Protocol: FIG. 6. Flow cytometry evaluation of the binding of fluorescently labeled aptamers and dimeric aptamer complexes with and without flexible linkers to C4-2 cells. Aptamer labeling with Quasar 570 and Quasar 670 was done as described in FIG. 8.
# The relative binding of the PSMA01 DNA aptamer in monomeric form as well as in dimeric form with and without flexible linkers was also evaluated towards C4-2 cells using flow cytometry. Cells were treated in the same manner as described for the confocal microscopy experiments and were detached using an enzyme-free cell-dissociation buffer (Invitrogen). Cells were analyzed using a BD FACSCanto flow cytometry system and the data were analyzed using BD FACSDiva software (BD Biosciences, San Jose, Calif.).
# [4] = test system: C4-2 cells; assay: Fluorescence microscopy of fluorescently-labeled aptamer, dimeric complex or mAb on live cells; type: cell-based
# Protocol: (§1) FIG. 1. Fluorescence microscopy images of the PSMA01 DNA aptamer binding to (A) C4-2 cells; (B) LNCaP cells; (C)PC3 cells. (D) Binding of the A10-3 RNA aptamer to C4-2 cells. Live cells were incubated in PBS with 1×10^−6 M Rhodamine-conjugated aptamer for 2 h at room temperature. Cells were fixed with 3.7% formaldehyde for 2 min prior to visualization using an Olympus inverted microscope.
# FIG. 3. Fluorescence microscopy images of (A) a monomeric aptamer conjugate of PSMA01 with a dT16 tail; (B) a dimeric aptamer complex consisting of 1:1 ratio of monomeric PSMA01 conjugates with dA16 and dT16 tails; (C) the J591 mAb. All images were obtained using live C4-2 cells. For (A) and (B) cells were prepared as described in FIG. 4. […]
# We have has formed an affinity matrix using recombinant PSMA expressed from baculovirus. […] Protein purity was determined by gel electrophoresis and the identity of the protein was confirmed by Western blotting and mass spectrometry. […] The ssDNA product was analyzed by gel electrophoresis and quantified by UV absorption. […] DNA sequences were determined from individual clones at the core DNA sequencing facility of the CCCWFU. […] These sequences were also shown using fluorescence microscopy to bind selectively to PSMA-expressing prostate cancer cells (LNCaP, C4-2) relative to PC3 cells. […]
# [5] = test system: PC3 cells; assay: Fluorescence microscopy of fluorescently-labeled aptamer on live cells (PSMA− negative control); type: cell-based; conditions: 2 h, room temperature
# Protocol: as §1
# (§2) In these studies, live (non-fixed cells) cells were incubated in the presence of fluorescently-labeled aptamer for 2 h at room temperature. In these studies, C4-2 and LNCaP cells were used to evaluate binding to PSMA+ cells while PC3 cells were used as a PSMA− negative control.
# [6] = test system: LNCaP cells; assay: Fluorescence microscopy of fluorescently-labeled aptamer on live cells; type: cell-based; conditions: PSMA+ cells, 2 h, room temperature
# Protocol: as §1, §2
Compound,tumor growth relative to control ([1]; FdUMP[10] 150 mg/kg),"tolerability / body weight at administered dose ([1]; mouse, in vivo)",relative sensitivity of PC3 versus C4-2 cells to activated FPs [2],"tolerability / body weight at administered dose ([1]; i.v. 1× per week, FdUMP[10] 150 mg/kg, 5FU 100 mg/kg (maximum tolerated dose))",mean fluorescence intensity (cell binding) [3],"internalization into PSMA+ cells ([4]; C4-2 and LNCaP cells, incubation at room temperature or 37° C.)","binding to C4-2 cells ([4]; PSMA+ cells, live cells, 1×10^−6 M Rhodamine-conjugated aptamer, 2 h, room temperature)",binding to PC3 cells [5],binding to LNCaP cells [6]
"O=c1[nH]cc(F)c(=O)[nH]1 [5FU, 5-fluorouracil]",did not reduce tumor growth rates relative to control,lost weight compared to the controls,–,–,–,–,–,–,–
FdUMP[10],significantly reduced tumor growth relative to control,–,PC3 cells are more sensitive,well-tolerated,–,–,–,–,–
"PSMA01: DNA aptamer to PSMA, 5′-GCGTTTTCGCTTTTGCGTTTTGGGTCATCTGCTTACGATAGCAATCGT (SEQ ID NO: 1) (DNA, backbone and methylation of C not given here; further chemistry not fully specified)",–,–,–,–,right-shifted relative to background,Neither our PSMA-01 DNA aptamer nor the A10-3 aptamer were internalized into PSMA+ cells to any significant extent,selective binding,no binding,selective binding

# Reference: patent US9284559B2, “Multivalent aptamer complexes” (Wake Forest University Health Sciences, priority 2009, dated 2016)
